Data set [1] has as its system beta-adrenoreceptor. The settings on record: in-vitro studies, salbutamol enantiomers; cited from earlier work.
For data set [2] the following is noted: cited from earlier work.
The conditions of data set [3]: compared with the racemate; cited from earlier work.
The nature of data set [4]: Flow, suspension and dispersion characteristics. The class given is physicochemical. The settings on record: compared with the racemate.
Data set [5] has as its system subjects with stable mild to moderate bronchial asthma. Description: Randomized double-blind, single-dose, crossover study of bronchodilator responses via metered dose inhaler. The class given is in vivo. The note with it: monitored over 6 hours. As to the method: A study was conducted to compare bronchodilator responses to levosalbutamol sulphate and racemic salbutamol sulphate administered via metered dose inhaler in a randomized double-blind, single-dose, crossover study. In this study single doses of 100 mcg levosalbutamol sulphate and 200 mcg racemic salbutamol sulphate were administered via MDI in subjects with stable mild to moderate bronchial asthma, who were then monitored over a period of 6 hours. […] Thus, it is clear from the study that a reduced dose of levosalbutamol sulphate is required compared to racemic salbutamol sulphate to have the same therapeutic effect.

For the compound `CC(C)(C)NC[C@@H](O)c1ccc(O)c(CO)c1` (single isomer, unassigned) [S-isomer], in data set [1], the “affinity for the beta-adrenoreceptor” value is recorded as “markedly less affinity”.
As for `COc1ccc(C[C@@H](C)NC[C@H](O)c2ccc(O)c(NC=O)c2)cc1` [R,R formoterol], the “activity relative to S,S-isomer or any other available isomer” value in data set [2] is recorded as 1000 times.
On to `CC(C)(C)NC[C@H](O)c1ccc(O)c(CO)c1` [levosalbutamol], for which the bronchodilatory effects entry in data set [3] is reported as “greater bronchodilatory effects than the racemate”. In data set [4], the flow property entry was “more free flowing than the racemate”; the “suspension and dispersion characteristics” value is “better suspension and dispersion characteristics”.
As to levosalbutamol sulphate, the bronchodilator response result in data set [5] (single dose 100 mcg via MDI, compared with 200 mcg racemic salbutamol sulphate) is given as “equivalent time-dependant bronchodilator responses”.
For the compound “salbutamol sulphate [racemic salbutamol sulphate]”, the bronchodilator response result in data set [5] (single dose 200 mcg via MDI, compared with 100 mcg levosalbutamol sulphate) is “equivalent time-dependant bronchodilator responses”.

The values are drawn from US20070264202A1, “Pharmaceutical Composition Comprising an Isomer of Betamimetic Agent and an Anti-Cholinergic Agent” (CIPLA LIMITED, priority 2004, published 2007).
